Data taken from patent US4562176A, “Method and composition for treating cancer” (priority 1985, dated 1985).
In brackets after ≈: the same amount, converted by molar mass. Numbered stars: 1 amine (or outer) side, 2 acyl side, 3 side chain; on linkers, the order of the positions; unused ones are H or OH. Bridge positions count the residues as written; N and C are the ends. Square brackets hold non-standard residues; d marks the D form. Peptide text beside a SMILES is read from it. I, II: the chains in the order shown. Actinocin(9to1) = Cc1c2oc3c(C)ccc(C(=O)[*:1])c3nc-2c(C(=O)[*:2])c(N)c1=O; NMeV = CN[C@H](C(=O)O)C(C)C; Sar = CNCC(=O)O

Assays:
[1] = tested on: purified calfthymus DNA; assay: Thermal denaturation of DNA (ΔTm); type: binding, calf; details: 0.01 M phosphate, EDTA, buffer pH 7.0
Method: ^a ΔTm = Tm of DNAdrug complex minut Tm of
purified calfthymus DNA.
(§1) Medium: 0.01 M phosphate containing 10^-4 EDTA, buffer pH 7.0.
Melting points were determined on a Thomas-Hoover melting point apparatus at a heating rate of 2° C./min. Dry column chromatography was accomplished with silicic acid powder (Bio-Sil A 100-200 mesh, Bio-Rad Laboratories, Inc.) or acid alumina (Woelm grade 1). Thin layer chromatography was performed on silica gel plates (Brinkmann Instrument, Inc.). For oxazinone analogues (2b), the silica gel plates were exposed to the vapor of conc. HCL in an air-tight container for 20 min before application of the compound for TLC. This procedure helped to prevent the streaking of the compounds in the chromatogram. Solvent systems were (A) EtOAc-acetone (2:1); (B) dry t-BuOH-C6 H6 --C6 H5 N (85:12.5:2.5); (C) Cifferri, the organic phase of the mixture EtOAc-MeOH-H2 O (20:L:20). High performance-liquid chromatography was carried out on a Varian Model 5020 gradient liquid chromatograph equipped with CD-111L chromatography data system and fitted with Varian reversed-phase C18 column with isocratic solvent systems, CH3 CN-5 mM NH4 OAc buffer, pH 6.4 (68:32), flow rate 15 mL/mn, with UV-visible variable and fixed wavelength dual detectors at 254,440, 500 and 252 nm. Spectra were determined on the following instruments: IR spectra were obtained on the Perkin-Elmer Model 237 Infra Cord with KBr micropellets or in CHCl3 solutions; UV-visible spectra were obtained on a Gilford 250 spectrophotometer, which, with the addition of a baseline reference compensator (Analog Multiplexer 5053) and thermoprogrammer, auto four cell programmer and thermoelectric cell holder 2577, were used to obtain thermal denaturation curves; specific rotational values were determined in CHCl3 solutions using a Cary 60 spectropolarimeter; NMR spectra were obtained in a JOEL FQ -90 MHz spectrometer equipped with Fourier transform. All elemental analyses were within +0.4%, unless it is specified otherwise.
DNA-DRUG BINDING BY DIFFERENCE SPECTRAL AND THERMAL DEVATURATION OF DNA (ΔTm) TECHNIQUES […]

[2] = tested on: P388 lymphocytic leukemia; assay: In vivo P388 assay; set-up: species or system mice; details: ip days 1,5,9; for % ILS (percent increase in life span) / MST (median survival time) / Cure (over 60 day survivors): at optimum dose; for % ILS (percent increase in life span) / MST (median survival time): CDF1 male mice; for MST (median survival time): control MST 11.0 days; for Cure (over 60 day survivors): group of 7 CDF1 male mice, average of 2 experiments
Method: ^c 10^6 P388 cells implanted intraperitoneally on day 0 into a
group of 7 CDF1 male mice. Drugs were administered, also ip, in 10%
Me2 SO--saline on days 1,5,9. Test solutions were kept at 0-4.degree
C., protected from light.
These analogues were tested for antitumor activity against P388 lymphocytic leukemia in male CDF1 hybrid mice (Table 6). The tumor was implanted intraperitoneally (ip) with 10^6 cells. The drugs were administered once daily on days 1, 5, 9 beginning 1 day after implantation.

[3] = tested on: human lymphoblastic leukemia cells (CCRF-CEM); assay: In vitro growth inhibition of CCRF-CEM cells; type: cell-based; details: for In Vitro (CCRF-CEM) ID50: cells in log-phase growth, suspension culture, final growth medium 5% Me2SO
Method: ^b Human lymphoblastic luekemia cells in logphase growth and in a
suspension culture. Compounds were dissolved in Me2 SO medium, final
growth medium contained 5% Me2 SO.
In vitro growth inhibition of the analogues were assayed against human lymphoblastic leukemia cells (CCRF-CEM) in log phase. The most cyctoxic are AMD-OZN analogues 2b and 2g and AMD-OZL analogues 4a-4c. However, compared to AMD, they are several fold less cytotoxic to CEM-cells in vitro.

[4] = tested on: DNA; assay: DNA-drug binding by difference spectral (absorption and CD) techniques; details: for Diff. CD Spectra -Δ[θ]max (nm): DNA-bound vs combined individual spectra; for Diff. CD Spectra -Δ[θ]max (nm) / Diff. Absorption Spectra -Δεmax (nm): 340-600 nm, wavelength in brackets, phosphate buffer pH 7.0; for Diff. Absorption Spectra -Δεmax (nm): free minus DNA-bound spectrum
Text: ^b Diff. Absorption Spectra is the calculated absorption spectra
obtained by subtracting the spectrum of the DNAbound analogue from the
spectrum of the free analogue, measured at 340-600 nm.
^c Diff. CD Spectra is the calculated CD Spectra obtained as the
difference of the DNAbound from the combined individual spectra of
analogues and DNA at 340-600 nm.
as §1
DNA-DRUG BINDING BY DIFFERENCE SPECTRAL AND THERMAL DEVATURATION OF DNA (ΔTm) TECHNIQUES
These experiments were performed according to the methods described by Sengupta et al., Cancer Chemother. Rep., 1974, 58, p. 35, Sengupta et al, J. Med. Chem., 1981, 24, p. 1052 and Sengupta et al, 1983, 26, p. 448, Sengupta et al, 1978, Biochem. Biophys Acta, 521, p. 89.

[5] = tested on: mouse leukemia cells; details: known before this invention; cited from earlier work
[6] = Solubility in distilled water
Method: SOLUBILITY OF ACTINOMYCIN D AND ANALOGUES 2b, 3b AND 4b IN DISTILLED WATER AT 20° C. AND 4° C.

Cc1nc2c(C(=O)N[C@@H]3C(=O)N[C@H](C(C)C)C(=O)N4CCC[C@H]4C(=O)N(C)CC(=O)N(C)[C@@H](C(C)C)C(=O)O[C@@H]3C)c3c(c(C)c2o1)Oc1c(C)ccc(C(=O)N[C@@H]2C(=O)N[C@H](C(C)C)C(=O)N4CCC[C@H]4C(=O)N(C)CC(=O)N(C)[C@@H](C(C)C)C(=O)O[C@@H]2C)c1N3 [Compound 3a]
ΔTm (Tm of DNA-drug complex minus Tm of DNA) [1]: 0.0 ± 0.30 °C
% ILS (percent increase in life span) [2]: 91%
MST (median survival time) [2]: 21 days
Cure (over 60 day survivors) [2]: 0/7
In Vitro (CCRF-CEM) ID50 [3]: 2.9 µg/mL
Diff. CD Spectra -Δ[θ]max (nm) [4]: nil
Diff. Absorption Spectra -Δεmax (nm) [4]: nil

Cc1c2oc3c(C)c(O)cc(C(=O)N[C@@H]4C(=O)N[C@H](C(C)C)C(=O)N5CCC[C@H]5C(=O)N(C)CC(=O)N(C)[C@@H](C(C)C)C(=O)O[C@@H]4C)c3nc-2c(C(=O)N[C@@H]2C(=O)N[C@H](C(C)C)C(=O)N3CCC[C@H]3C(=O)N(C)CC(=O)N(C)[C@@H](C(C)C)C(=O)O[C@@H]2C)c(N)c1=O [Compound 1b, 7-HYDROXY ACTINOMYCIN D]
ΔTm (Tm of DNA-drug complex minus Tm of DNA) [1]: 6.7 ± 0.15 °C
Diff. CD Spectra -Δ[θ]max (nm) [4]: 31,000(485)
Diff. Absorption Spectra -Δεmax (nm) [4]: 9,380(550)

Cc1ccc(C(=O)N[C@@H]2C(=O)N[C@H](C(C)C)C(=O)N3CCC[C@H]3C(=O)N(C)CC(=O)N(C)[C@@H](C(C)C)C(=O)O[C@@H]2C)c2c1Oc1c(c(C(=O)N[C@@H]3C(=O)N[C@H](C(C)C)C(=O)N4CCC[C@H]4C(=O)N(C)CC(=O)N(C)[C@@H](C(C)C)C(=O)O[C@@H]3C)c3nc(-c4ccccc4)c(=O)oc3c1C)N2 [Compound 2b]
antitumor activity against P388 (in words) ([2]; CDF1 mice): most active
% ILS (percent increase in life span) [2]: 309%
MST (median survival time) [2]: 45 days
Cure (over 60 day survivors) [2]: 2/7
activity against mouse leukemia cells [5]: active
cytotoxicity to CEM cells (in words) ([3]; CCRF-CEM in log phase): most cyctoxic
In Vitro (CCRF-CEM) ID50 [3]: 0.44 µg/mL
activity against human cancer cells (in words) ([3]; human cancer cells): highest human antitumor effects

Cc1c2oc3c(C)ccc(C(=O)N[C@@H]4C(=O)N[C@H](C(C)C)C(=O)N5CCC[C@H]5C(=O)N(C)CC(=O)N(C)[C@@H](C(C)C)C(=O)O[C@@H]4C)c3nc-2c(C(=O)N[C@@H]2C(=O)N[C@H](C(C)C)C(=O)N3CCC[C@H]3C(=O)N(C)CC(=O)N(C)[C@@H](C(C)C)C(=O)O[C@@H]2C)c(N)c1=O [Compound 1a, Actinomycin D, reference compound] (I: T[dV]P[Sar][NMeV] / II: T[dV]P[Sar][NMeV]; ester I:1-I:C, II:1-II:C; linker I:N-II:N via Actinocin(9to1))
ΔTm (Tm of DNA-drug complex minus Tm of DNA) [1]: 7.1 ± 0.15 °C
% ILS (percent increase in life span) [2]: 136%
MST (median survival time) [2]: 26 days
Cure (over 60 day survivors) [2]: 1/7
In Vitro (CCRF-CEM) ID50 [3]: 0.04 µg/mL
Diff. CD Spectra -Δ[θ]max (nm) [4]: 40,000(390)
DNA binding (in words) ([4]; difference spectral or ΔTm techniques): binds to DNA strongly by intercalation
Diff. Absorption Spectra -Δεmax (nm) [4]: 8,240(425)
solubility in distilled water ([6]; 4° C.): 20.5 mg/mL (≈ 16.3 mM)
solubility in distilled water ([6]; 20° C.): 0.9 mg/mL (≈ 0.717 mM)
